Laboratory results from US9611295B2, “Treatment of IL-17 mediated disease by blocking SEFIR-SEFIR interactions” (THE CLEVELAND CLINIC FOUNDATION, priority 2011, dated 2017).

Legend:
[1] = system: IL-17-mediated expression of Cxcl1; assay: IL-17-mediated Cxcl1 mRNA expression in MEFs, real-time RT-PCR; assay type: cell-based, mouse; details: peptides 200 μM for 24 hours, then IL-17 for 3 hours
Method: (§1) FIG. 4 provides data showing that a cell-permeable CC′ loop decoy peptide disrupts the interaction between Act1 and IL-17RA and inhibits IL-17R and IL-25R signaling. FIG. 4A provides sequences of Antennapedia homeodomain (Antp) (SEQ ID NO: 11)and decoy peptides (SEQ ID NOS 23-25 and 17, respectively, in order of appearance) with the Antp sequence underlined. FIG. 4B provides flow cytometry results based on experiments in which MEFs expressing IL-17RB were incubated for 2 or 24 hours with the indicated FITC-tagged peptides (200 μM) and were then analyzed by flow cytometry. […] The percentages of FITC-positive cells in the treated samples are shown. […] FIG. 4D provides Western blot results of experiments in which MEFs expressing IL-17RB were incubated with the indicated peptides (200 μM) for 24 hours after which they were treated with IL-17 or IL-25 and then analyzed by Western blotting with the indicated antibodies. […] The abundances of Cxcl1 and Il13 mRNAs were then measured by real-time RT-PCR. […]
(§2) Decoy peptides are based on surface-exposed regions of the primary sequence of a protein to mimic a putative interaction interface. […] These decoy peptides were also tagged at their C-termini with fluorescein isothiocyanate (FITC) to enable their cell-penetrating efficiency to be evaluated by flow cytometric sanalysis. […]

[2] = system: IL-17-induced pulmonary inflammation; assay: IL-17-induced pulmonary inflammation in BALB/c mice; assay type: in vivo, mouse
Method: FIG. 5 provides bar graph and staining data showing that a cell-permeable CC′ loop decoy peptide inhibits IL-17- and IL-25-induced pulmonary inflammation. Wild-type (WT) female BALB/c mice (n=4 mice per group) were pretreated with DMSO, scrambled peptide, or the CC′ loop decoy peptide for 4 hours, after which they were administered saline, IL-17, or IL-25 intranasally. Mice were sacrificed and analyzed 16 hours after injection with IL-17 or 4 days after injection with IL-25. […] All experiments were performed three times. *P<0.05.
It has been shown that Act1 plays an essential role in IL-17- and IL-25-mediated pulmonary inflammation. Thus, the inventors examined whether the Act1 SEFIR domain CC′ loop decoy peptide ameliorated IL-17- and IL-25-induced airway inflammation in vivo. BALB/c mice were pretreated with scrambled peptide or with the Act1 SEFIR domain CC′ loop decoy peptide for 4 hours, after which we injected the mice intranasally with IL-17 or IL-25. […] Consistently, IL-17-induced lung and airway recruitment of granulocytes was reduced in mice pretreated with the CC′ loop decoy peptide compared to that in mice pretreated with the scrambled peptide (FIG. 5C). The lower grade of pulmonary inflammation in the mice treated with the CC′ loop decoy peptide correlated with the decreased IL-17-dependent expression of genes encoding MCP-1 and GM-CSF in the lung tissues (FIG. 5D). […] IL-25-induced lung and airway recruitment of granulocytes, predominantly eosinophils, as well as mucin production, as determined by Periodic acid-Schiff (PAS) staining, were reduced in mice pretreated with the CC′ loop decoy peptide compared to that in mice pretreated with the scrambled peptide (FIG. 5G). The decreased pulmonary inflammation in […] correlated with decreased expression of genes encoding the TH2-type cytokines IL-5 and IL-13 in the lungs (FIG. 5H).
Intranasal injection of mice with IL-17 and IL-25: Wild-type BALB/c female mice were pretreated with dimethyl sulfoxide (DMSO, the solvent for peptides), scrambled peptide, or the CC′ loop decoy peptide for 4 hours, after which they underwent intranasal administration of saline, IL-17 (4 μg/mouse), or IL-25 (4 μg/mouse). For IL-25-treated mice, decoy peptides were administrated daily through intranasal injection after pretreatment. Mice were anesthetized with isoflurane and sacrificed. BAL fluid was collected 16 hours after injection with IL-17 or 4 days after injection with IL-25. A total of 0.7 ml of HL-1 medium (BioWhittaker®) was used to obtain BAL fluid through trachea with a blunt needle and a 1-ml syringe. Cytospin slide preparations were obtained with a Shandon CytoSpin III Cytocentrifuge (Shandon/Thermo Scientific). Differential leukocyte counts were obtained on cytospin slide preparations after incubation with Diff Quik Giemsa stain. Cytokines in the BAL were analyzed by MultipleX plate (Invitrogen®). H&E and PAS staining were performed on lung tissues after fixation in 10% neutral-buffered formalin and paraffin embedding to detect pulmonary inflammation and for assessment of goblet cell metaplasia and mucin accumulation in airway epithelial cells.

[3] = system: IL-25-mediated expression of Il13; assay: IL-25-mediated Il13 mRNA expression in MEFs, real-time RT-PCR; assay type: cell-based, mouse; details: peptides 200 μM for 24 hours, then IL-25 for 3 hours
Method: as §1, §2

[4] = system: IL-25-dependent signaling; assay: IL-25-dependent signaling in MEFs by Western blotting (pIκB, pJNK, pERK, pp38 MAPK); assay type: cell-based, mouse
Method: FIG. 4 provides data showing that a cell-permeable CC′ loop decoy peptide disrupts the interaction between Act1 and IL-17RA and inhibits IL-17R and IL-25R signaling. FIG. 4A provides sequences of Antennapedia homeodomain (Antp) (SEQ ID NO: 11)and decoy peptides (SEQ ID NOS 23-25 and 17, respectively, in order of appearance) with the Antp sequence underlined. FIG. 4B provides flow cytometry results based on experiments in which MEFs expressing IL-17RB were incubated for 2 or 24 hours with the indicated FITC-tagged peptides (200 μM) and were then analyzed by flow cytometry. […] The percentages of FITC-positive cells in the treated samples are shown. FIG. 4C provides Western blot results of experiments in which HeLa cells were cotransfected with plasmids encoding FLAG-tagged mAct1 and V5-tagged IL-17RA and were cultured for 24 hours, after which they were incubated for 24 hours with the indicated peptides (200 μM). IL-17RA was immunoprecipitated from the samples with antibody against the V5 tag, and samples were then subjected to Western blotting analysis with the indicated antibodies. FIG. 4D provides Western blot results of experiments in which MEFs expressing IL-17RB were incubated with the indicated peptides (200 μM) for 24 hours after which they were treated with IL-17 or IL-25 and then analyzed by Western blotting with the indicated antibodies. FIG. 4E provides bar graphs showing the results of experiments in which MEFs expressing IL-17RB were incubated with the indicated peptides (200 μM) for 24 hours, after which they were treated with IL-17 or IL-25 for 3 hours. The abundances of Cxcl1 and Il13 mRNAs were then measured by real-time RT-PCR. […]
as §2

[5] = 4 hours pretreatment, intranasal IL-17, 16 hours, vs scrambled peptide

For “DRQIKIWFQNRRMKWKKLDEDEHGLHTKY [CC′ loop decoy peptide]”, the “inhibition of IL-17-mediated expression of Cxcl1” value [1] was roughly 50 % inhibition, the “GM-CSF in BAL fluid” value [2, 5] was “substantially reduced” and the “MCP-1 in BAL fluid” value [2, 5] was “substantially reduced”. For the same sequence, the “neutrophil counts in BAL fluid” value [2, 5] was “substantially reduced”, the “neutrophil counts in BAL fluid” value ([2]; 4 hours pretreatment, intranasal IL-17, 16 hours, vs scrambled peptide, listed as CC′ peptide) was “reduced accumulation” and the “dose dependence of inhibition of IL-17-induced pulmonary inflammation” value ([2]; data not shown) was “dose-dependent manner”. The “IL-17-dependent expression of genes encoding MCP-1 and GM-CSF in lung tissues” value ([2]; real-time RT-PCR) was “decreased”, the “IL-17-induced lung and airway recruitment of granulocytes (H&E)” value ([2]; vs scrambled peptide) was “reduced” and the “inhibition of IL-25-mediated expression of Il13” value [3] was roughly 60 % inhibition. The “IL-25-dependent signaling (pIκB, pJNK, pERK, pp38 MAPK)” value ([4]; MEFs expressing IL-17RB, peptides 200 μM, 24 hours) was “partly attenuated” and the “dose and time dependence of inhibition of IL-25-dependent signaling and gene expression” value ([4]; data not shown) was “dose-and time-dependent manner”.
